Source: patent publication US20240418701A1, “SINGLE MOLECULE IDEN[…] A REACTIVE HETERO-NANOPORE” (priority 2021, published 2024)
“And” between values parts separate entries of the source, which are not always exact repeats. Equal entries are not always repeated.

What was measured:
[1] = target: T1, MspA-PBA (phenylboronic acid modified hetero-octameric (N90C)1(M2)7 MspA) (Mycolicibacterium smegmatis, UniProt A0QR29, D117C/D118N/D120N/D145R/D161R/E166K); assay: Single channel recording of L-Sorbose binding to MspA-PBA nanopore; parameters: species or system Mycobacterium smegmatis; settings: for 1/τoff Mean / 1/τon Mean / Amplitude of L-Sorbose events, Current, Mean: N=3
T1 construct: H6 (hexa-histidine) (C); 3-(maleimide) phenylboronic acid (MPBA) adduct on the thiol of Cys90; made in house; host or cells: E. coli BL21 (DE3) pLysS, co-expression from pETDuet-1

[2] = target: T2, octameric M2 MspA-D16H6 (Mycolicibacterium smegmatis, UniProt A0QR29, D117N/D118N/D120N/D145R/D161R/E166K); assay: L-Sorbose sensing by octameric M2 MspA-D16H6 (control without PBA); type: binding, Mycobacterium smegmatis; settings: L-Sorbose 50 mM in cis, +160 mV
T2 construct: D16 (16 consecutive aspartic acids) (C); H6 (hexa-histidine) (C); made in house; host or cells: E. coli BL21 (DE3) pLysS, pET-30a(+)
Procedure: FIG. 11: L-Sorbose sensing by an octameric M2 MspA-D16H6. L-Sorbose sensing was performed with an octameric M2 MspA-D16H6 in a 1.5 M KCl, 10 mM MOPS, pH7.0 buffer. A +160 mV bias was continually applied.
L-Sorbose is a monosaccharide ketose. It exists in all living species, ranging from bacteria to human^50. The commercial production of vitamin C (ascorbic acid) often begins with L-Sorbose^51. To further verify the existence of a PBA in the lumen of the pore, MspA-PBA was used to sense L-Sorbose. The measurement was performed with a single MspA-PBA and a 1.5 M KCl, 10 mM MOPS, pH 7.0 buffer with the continuous application of a +160 m V bias. The addition of L-Sorbose to cis to a 10 mM final concentration resulted immediately in the consecutive appearance of long residing resistive pulse events (FIGS. 1d-1f, Supplementary Video 1). […] In this way, it was confirmed that the introduction of a PBA to the pore lumen is critical for the generation of saccharide sensing events.
The measurement device is composed of two custom-made polyformaldehyde chambers separated by a ˜20 μm-thick Teflon film with a drilled aperture (˜100 μm in diameter). Before the measurement, the aperture was first treated with 0.5% (v/v) hexadecane in pentane and set for evaporation of the pentane. […] All events were detected by the “single channel research” function in Clampfit 10.7. […]

[3] = L-Sorbose 400 μM in cis, +160 mV
[4] = L-Sorbose 800 μM in cis, +160 mV
[5] = L-Sorbose 1200 μM in cis, +160 mV
[6] = L-Sorbose 1600 μM in cis, +160 mV
[7] = L-Sorbose 2000 μM in cis, +160 mV

T2 sequence (A0QR29 other isoform, or with tags, fused parts or gaps D117N/D118N/D120N/D145R/D161R/E166K): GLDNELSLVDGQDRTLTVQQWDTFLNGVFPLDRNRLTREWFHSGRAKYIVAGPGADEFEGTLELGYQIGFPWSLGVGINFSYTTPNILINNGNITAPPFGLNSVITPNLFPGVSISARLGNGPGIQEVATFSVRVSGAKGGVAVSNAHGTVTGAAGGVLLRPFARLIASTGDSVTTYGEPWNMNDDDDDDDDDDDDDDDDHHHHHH

O=C(CO)[C@@H](O)[C@H](O)[C@@H](O)CO [L-Sorbose, L-(−)-Sorbose]
Amplitude of L-Sorbose events, Current, Pore1 ([1]; 40 mV, L-Sorbose 5 mM in cis): 29.3 ± 0.0005 pA | Amplitude of L-Sorbose events, Current, Pore2 ([1]; 40 mV, L-Sorbose 5 mM in cis): 29.05 ± 0.0005 pA | Amplitude of L-Sorbose events, Current, Pore3 ([1]; 40 mV, L-Sorbose 5 mM in cis): 29.2 ± 0.002 pA | 1/τoff Mean ([1]; 40 mV, L-Sorbose 5 mM in cis): 5.06E−04 ms^−1 | 1/τon Mean ([1]; 40 mV, L-Sorbose 5 mM in cis): 7.9E−04 ms^−1 | Amplitude of L-Sorbose events, Current, Mean ([1]; 40 mV, L-Sorbose 5 mM in cis): 29.2 pA | Amplitude of L-Sorbose events, Current, Pore1 ([1]; 70 mV, L-Sorbose 5 mM in cis): 54.5 ± 0.010 pA | Amplitude of L-Sorbose events, Current, Pore2 ([1]; 70 mV, L-Sorbose 5 mM in cis): 52.7 ± 0.0008 pA | Amplitude of L-Sorbose events, Current, Pore3 ([1]; 70 mV, L-Sorbose 5 mM in cis): 52.5 ± 0.0008 pA | 1/τoff Mean ([1]; 70 mV, L-Sorbose 5 mM in cis): 4.3E−04 ms^−1 | 1/τon Mean ([1]; 70 mV, L-Sorbose 5 mM in cis): 7.4E−04 ms^−1 | Amplitude of L-Sorbose events, Current, Mean ([1]; 70 mV, L-Sorbose 5 mM in cis): 53.08 pA | Amplitude of L-Sorbose events, Current, Pore1 ([1]; 100 mV, L-Sorbose 5 mM in cis): 74.6 ± 0.002 pA | Amplitude of L-Sorbose events, Current, Pore2 ([1]; 100 mV, L-Sorbose 5 mM in cis): 73.2 ± 0.009 pA | Amplitude of L-Sorbose events, Current, Pore3 ([1]; 100 mV, L-Sorbose 5 mM in cis): 73.3 ± 0.002 pA | 1/τoff Mean ([1]; 100 mV, L-Sorbose 5 mM in cis): 4.04E−04 ms^−1 | 1/τon Mean ([1]; 100 mV, L-Sorbose 5 mM in cis): 8.7E−04 ms^−1 | Amplitude of L-Sorbose events, Current, Mean ([1]; 100 mV, L-Sorbose 5 mM in cis): 73.7 pA | Amplitude of L-Sorbose events, Current, Pore1 ([1]; 130 mV, L-Sorbose 5 mM in cis): 91.6 ± 0.003 pA | Amplitude of L-Sorbose events, Current, Pore2 ([1]; 130 mV, L-Sorbose 5 mM in cis): 90.3 ± 0.004 pA | Amplitude of L-Sorbose events, Current, Pore3 ([1]; 130 mV, L-Sorbose 5 mM in cis): 90.3 ± 0.004 pA | 1/τoff Mean ([1]; 130 mV, L-Sorbose 5 mM in cis): 3.8E−04 ms^−1 | 1/τon Mean ([1]; 130 mV, L-Sorbose 5 mM in cis): 8.4E−04 ms^−1 | Amplitude of L-Sorbose events, Current, Mean ([1]; 130 mV, L-Sorbose 5 mM in cis): 90.8 pA | Amplitude of L-Sorbose events, Current, Pore1 ([1]; 160 mV, L-Sorbose 5 mM in cis): 107.7 ± 0.005 pA | Amplitude of L-Sorbose events, Current, Pore2 ([1]; 160 mV, L-Sorbose 5 mM in cis): 104.9 ± 0.006 pA | Amplitude of L-Sorbose events, Current, Pore3 ([1]; 160 mV, L-Sorbose 5 mM in cis): 105.3 ± 0.006 pA | 1/τoff Mean ([1]; 160 mV, L-Sorbose 5 mM in cis): 2.9E−04 ms^−1 | 1/τon Mean ([1]; 160 mV, L-Sorbose 5 mM in cis): 8.5E−04 ms^−1 | Amplitude of L-Sorbose events, Current, Mean ([1]; 160 mV, L-Sorbose 5 mM in cis): 105.9 pA | Amplitude of L-Sorbose events, Current, Pore1 ([1]; 190 mV, L-Sorbose 5 mM in cis): 122.9 ± 0.007 pA | Amplitude of L-Sorbose events, Current, Pore2 ([1]; 190 mV, L-Sorbose 5 mM in cis): 116.7 ± 0.008 pA | Amplitude of L-Sorbose events, Current, Pore3 ([1]; 190 mV, L-Sorbose 5 mM in cis): 120.7 ± 0.010 pA | 1/τoff Mean ([1]; 190 mV, L-Sorbose 5 mM in cis): 2.9E−04 ms^−1 | 1/τon Mean ([1]; 190 mV, L-Sorbose 5 mM in cis): 8.3E−04 ms^−1 | Amplitude of L-Sorbose events, Current, Mean ([1]; 190 mV, L-Sorbose 5 mM in cis): 120.13 pA | Amplitude of L-Sorbose events, Current, Pore1 ([1]; 220 mV, L-Sorbose 5 mM in cis): 143.6 ± 0.02 pA | Amplitude of L-Sorbose events, Current, Pore2 ([1]; 220 mV, L-Sorbose 5 mM in cis): 132.9 ± 0.02 pA | Amplitude of L-Sorbose events, Current, Pore3 ([1]; 220 mV, L-Sorbose 5 mM in cis): 137.2 ± 0.013 pA | 1/τoff Mean ([1]; 220 mV, L-Sorbose 5 mM in cis): 3.4E−04 ms^−1 | 1/τon Mean ([1]; 220 mV, L-Sorbose 5 mM in cis): 8.07E−04 ms^−1 | Amplitude of L-Sorbose events, Current, Mean ([1]; 220 mV, L-Sorbose 5 mM in cis): 137.9 pA | blockage amplitude (ΔI) / current drop of L-Sorbose sensing events ([1]; +160 mV, L-Sorbose 10 mM in cis): ~100 pA and ~102 pA | 1/τoff Mean [1, 3]: 2.9E−04 ms^−1 | 1/τon Mean [1, 3]: 5.10E−05 ms^−1 | 1/τoff Mean [1, 4]: 2.9E−04 ms^−1 | 1/τon Mean [1, 4]: 1.03E−04 ms^−1 | 1/τoff Mean [1, 5]: 3.08E−04 ms^−1 | 1/τon Mean [1, 5]: 1.7E−04 ms^−1 | 1/τoff Mean [1, 6]: 3.11E−04 ms^−1 | 1/τon Mean [1, 6]: 2.2E−04 ms^−1 | 1/τoff Mean [1, 7]: 2.9E−04 ms^−1 | 1/τon Mean [1, 7]: 3.07E−04 ms^−1 | 1/τoff Mean ([1]; −40 mV, L-Sorbose 5 mM in cis): 5.01E−04 ms^−1 | 1/τon Mean ([1]; −40 mV, L-Sorbose 5 mM in cis): 7.6E−04 ms^−1 | resistive pulse events with M2 MspA [2]: failed to cause any resistive pulse events
